Activity calls are given as the source filed them.
Key:
[1] = biological target: T1, Type-1 angiotensin II receptor (Homo sapiens) (UniProt P30556); experiment: The compound was evaluated for the inhibition of binding of [3H]-DUP 753 to AT1 receptor at 0.1 uM; not active (</= 10% Inhibition)
T1 sequence (whole entry): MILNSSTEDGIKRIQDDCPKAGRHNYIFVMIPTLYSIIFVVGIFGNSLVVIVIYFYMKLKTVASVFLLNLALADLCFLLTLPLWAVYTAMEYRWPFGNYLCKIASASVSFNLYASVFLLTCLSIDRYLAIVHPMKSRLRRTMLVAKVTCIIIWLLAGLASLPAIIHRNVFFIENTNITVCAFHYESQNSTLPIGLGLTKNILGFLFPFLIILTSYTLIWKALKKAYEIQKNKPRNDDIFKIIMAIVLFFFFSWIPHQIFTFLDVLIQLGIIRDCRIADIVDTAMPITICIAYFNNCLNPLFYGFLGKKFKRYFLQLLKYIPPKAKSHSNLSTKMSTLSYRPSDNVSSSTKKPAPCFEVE

[2] = biological target: T2, Type-2 angiotensin II receptor (Homo sapiens, UniProt P50052); experiment: The compound was evaluated for the inhibition of binding of [125I]-CGP 42112A to AT2 receptor
T2 sequence (P50052 whole entry): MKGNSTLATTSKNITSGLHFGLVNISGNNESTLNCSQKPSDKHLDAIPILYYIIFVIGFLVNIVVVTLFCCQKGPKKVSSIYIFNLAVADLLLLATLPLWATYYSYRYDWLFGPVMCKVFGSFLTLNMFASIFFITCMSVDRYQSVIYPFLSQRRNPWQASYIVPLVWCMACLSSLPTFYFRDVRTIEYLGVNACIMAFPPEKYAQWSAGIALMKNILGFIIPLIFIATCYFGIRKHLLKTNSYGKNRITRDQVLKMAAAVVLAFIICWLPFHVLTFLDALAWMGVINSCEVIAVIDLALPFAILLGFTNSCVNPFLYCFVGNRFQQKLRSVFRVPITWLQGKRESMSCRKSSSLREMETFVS

[3] = biological target: T1, Type-1 angiotensin II receptor (Homo sapiens); experiment: The compound was evaluated for the inhibition of binding of [3H]-DUP 753 to AT1 receptor at 1 uM; not active (</= 10% Inhibition)

| SMILES | inhibition [1] | IC50 [2] | inhibition [3] |
| --- | --- | --- | --- |
| Cc1cc(Cn2cnc3c2C[C@@H](C(=O)O)N(C(=O)C(c2ccccc2)c2ccccc2)C3)ccc1NCCCCCCNC(=O)[C@@H](N)CCCCNC(=O)CCCC[C@@H]1SC[C@@H]2NC(=O)N[C@@H]21 | inactive | 7 nM |  |
| Cc1cc(Cn2cnc3c2C[C@@H](C(=O)O)N(C(=O)C(c2ccccc2)c2ccccc2)C3)cc(I)c1O | inactive | 5.1 nM |  |
| Cc1cc(Cn2cnc3c2C[C@@H](C(=O)O)N(C(=O)C(c2ccccc2)c2ccccc2)C3)ccc1N(C)C | inactive |  |  |
| Cc1cc(Cn2cnc3c2C[C@@H](C(=O)O)N(C(=O)C(c2ccccc2)c2ccccc2)C3)ccc1NCCCCCCNC(=O)CCNc1ccc([N+](=O)[O-])c2nonc12 |  | 3.6 nM | inactive |

From ChEMBL document CHEMBL1126478, “The syntheses and binding affinities of tools for the study of angiotensin AT2 receptors” (Bioorg Med Chem Lett, 1993)
